Experimental data from patent EP4741392A1, “1H-PYRAZOLO[4,3-C]PYRIDINE COMPOUND, AND COMPOSITION THEREOF AND USE THEREOF” (Shenzhen TargetRx Co., Ltd., priority 2023, dated 2025).

Tests used:
Type in all cases: cell-based
NIH/3T3 BTK WT cells = experiment: Phosphor-BTK(Y223) assay, adherent cells; conditions: Mus musculus, NIH3T3, phosphorylated BTK Y223, NIH/3T3 BTK WT cells; read-out: NIH/3T3 BTK-WT pBTK
Summary of the method: (§1)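 NIH/3T3 cells expressing WT or C481S BTK were pretreated with compound for 0.5 h at 37 °C, then stimulated with 1 mM Na3VO4 (final) for 2 h. Lysates were assayed by HTRF for p-BTK Y223 using the 665/620 nm ratio. IC50 was obtained by nonlinear fit of % inhibition versus 0.5% DMSO control.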

NIH/3T3 BTK C481S cells = experiment: Phosphor-BTK(Y223) assay, adherent cells; conditions: Mus musculus, NIH3T3, phosphorylated BTK Y223, NIH/3T3 BTK C481S cells; read-out: NIH/3T3 BTK-C481S pBTK
Summary of the method: as §1

Ramos cells with BTK WT = experiment: Phosphor-BTK(Y223) assay, suspended cells; conditions: Homo sapiens, Ramos, phosphorylated BTK Y223, Ramos cells with BTK WT
Summary of the method: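 Ramos BTK WT cells (2.5 k/well) were treated with compound dilutions for 2 h at 37 °C, then 5 mM Na3VO4 for 3 h. Lysates were read by HTRF p-BTK(Y223) cryptate/d2 antibodies overnight at RT (665/620 ratio). IC50 came from a four-parameter fit of % inhibition versus blank and positive-control wells.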

`COc1ccc(F)cc1C(=O)NCc1ccc(-c2ncc(-c3ccn(CC(=O)N(C)C)n3)c3[nH]nc(N)c23)cc1` [Example 25, N-(4-(3-amino-7-(1-(2-(dimethylamino)-2-oxoethyl)-1H-pyrazol-3-yl)-1H-pyrazolo[4,3-c]pyridin-4-yl)benzyl)-5-fluoro-2-methoxybenzamide] gave an IC50 (NIH/3T3 BTK WT cells) of 10 to 50 nM, an IC50 (NIH/3T3 BTK C481S cells) of 10 to 50 nM and an IC50 (Ramos cells with BTK WT) of 5 to 10 nM.
`CNC(=O)Cn1ccc(-c2cnc(-c3ccc(CNC(=O)c4cc(F)ccc4OC)cc3)c3c(N)n[nH]c23)n1` [Example 26, N-(4-(3-amino-7-(1-(2-(methylamino)-2-oxoethyl)-1H-pyrazol-3-yl)-1H-pyrazolo[4,3-c]pyridin-4-yl)benzyl)-5-fluoro-2-methoxybenzamide] was tested, and the IC50 (NIH/3T3 BTK WT cells) was 10 to 50 nM, the IC50 (NIH/3T3 BTK C481S cells) was 10 to 50 nM and the IC50 (Ramos cells with BTK WT) was no more than 5 nM.
In the case of `COc1ccc(F)cc1C(=O)NCc1ccc(-c2ncc(-c3ccn(CC(F)(F)F)n3)c3[nH]nc(N)c23)cc1` [Example 28, N-(4-(3-amino-7-(1-(2,2,2-trifluoroethyl)-1H-pyrazol-3-yl)-1H-pyrazolo[4,3-c]pyridin-4-yl)benzyl)-5-fluoro-2-methoxybenzamide], the IC50 (NIH/3T3 BTK WT cells) is reported as no more than 5 nM, the IC50 (NIH/3T3 BTK C481S cells) is reported as 10 to 50 nM and the IC50 (Ramos cells with BTK WT) is reported as 10 to 50 nM.
Compound `COc1ccc(F)cc1C(=O)NCc1ccc(-c2ncc(-c3cn(C)cn3)c3[nH]nc(N)c23)cc1` [Example 30, N-(4-(3-amino-7-(1-methyl-1H-imidazol-4-yl)-1H-pyrazolo[4,3-c]pyridin-4-yl)benzyl)-5-fluoro-2-methoxybenzamide] has an IC50 (NIH/3T3 BTK WT cells) of no more than 5 nM, an IC50 (NIH/3T3 BTK C481S cells) of 5 to 10 nM and an IC50 (Ramos cells with BTK WT) of 10 to 50 nM.
Work on `COc1ccc(F)cc1C(=O)NCc1ccc(-c2ncc(-c3cc[nH]n3)c3[nH]nc(N)c23)cc1` [Example 31, N-(4-(3-amino-7-(1H-pyrazol-3-yl)-1H-pyrazolo[4,3-c]pyridin-4-yl)benzyl)-5-fluoro-2-methoxybenzamide] yielded an IC50 (NIH/3T3 BTK WT cells) of 5 to 10 nM, an IC50 (NIH/3T3 BTK C481S cells) of 10 to 50 nM and an IC50 (Ramos cells with BTK WT) of 10 to 50 nM.
Work on `COc1ccc(F)cc1C(=O)NCc1ccc(-c2ncc(-c3ccc(S(C)(=O)=O)cn3)c3[nH]nc(N)c23)cc1` [Example 35, N-(4-(3-amino-7-(5-(methylsulfonyl)pyridin-2-yl)-1H-pyrazolo[4,3-c]pyridin-4-yl)benzyl)-5-fluoro-2-methoxybenzamide] yielded an IC50 (NIH/3T3 BTK WT cells) of no more than 5 nM, an IC50 (NIH/3T3 BTK C481S cells) of no more than 5 nM and an IC50 (Ramos cells with BTK WT) of no more than 5 nM.
With `COc1ccc(F)cc1C(=O)NCc1ccc(-c2ncc(-c3ncc(F)cn3)c3[nH]nc(N)c23)cc1` [Example 36, N-(4-(3-amino-7-(5-fluoropyrimidin-2-yl)-1H-pyrazolo[4,3-c]pyridin-4-yl)benzyl)-5-fluoro-2-methoxybenzamide] the IC50 (NIH/3T3 BTK WT cells) was 5 to 10 nM, the IC50 (NIH/3T3 BTK C481S cells) was 5 to 10 nM and the IC50 (Ramos cells with BTK WT) was 10 to 50 nM.
`COc1ccc(F)cc1C(=O)NCc1ccc(-c2ncc(-c3ccc(C)cn3)c3[nH]nc(N)c23)cc1` [Example 37, N-(4-(3-amino-7-(5-methylpyridin-2-yl)-1H-pyrazolo[4,3-c]pyridin-4-yl)benzyl)-5-fluoro-2-methoxybenzamide] was tested, and the IC50 (NIH/3T3 BTK WT cells) was no more than 5 nM, the IC50 (NIH/3T3 BTK C481S cells) was no more than 5 nM and the IC50 (Ramos cells with BTK WT) was no more than 5 nM.
In the case of `COc1ccc(F)cc1C(=O)NCc1ccc(-c2ncc(-c3ccc(Cl)cn3)c3[nH]nc(N)c23)cc1` [Example 38, N-(4-(3-amino-7-(5-chloropyridin-2-yl)-1H-pyrazolo[4,3-c]pyridin-4-yl)benzyl)-5-fluoro-2-methoxybenzamide], the IC50 (NIH/3T3 BTK WT cells) is reported as no more than 5 nM, the IC50 (NIH/3T3 BTK C481S cells) is reported as no more than 5 nM and the IC50 (Ramos cells with BTK WT) is reported as no more than 5 nM.
For `COc1ccc(F)cc1C(=O)NCc1ccc(-c2ncc(-c3ncc(C)cn3)c3[nH]nc(N)c23)cc1` [Example 39, N-(4-(3-amino-7-(5-methylpyrimidin-2-yl)-1H-pyrazolo[4,3-c]pyridin-4-yl)benzyl)-5-fluoro-2-methoxybenzamide], the IC50 (NIH/3T3 BTK WT cells) was no more than 5 nM, the IC50 (NIH/3T3 BTK C481S cells) was no more than 5 nM and the IC50 (Ramos cells with BTK WT) was no more than 5 nM.
`COc1ccc(F)cc1C(=O)NCc1ccc(-c2ncc(-c3ccc(OC(F)(F)F)cn3)c3[nH]nc(N)c23)cc1` [Example 41, N-(4-(3-amino-7-(5-(trifluoromethoxy)pyridin-2-yl)-1H-pyrazolo[4,3-c]pyridin-4-yl)benzyl)-5-fluoro-2-methoxybenzamide] showed an IC50 (NIH/3T3 BTK WT cells) of no more than 5 nM, an IC50 (NIH/3T3 BTK C481S cells) of 5 to 10 nM and an IC50 (Ramos cells with BTK WT) of no more than 5 nM.
For `COc1ccc(F)cc1C(=O)NCc1ccc(-c2ncc(-c3ncc(C(F)(F)F)cn3)c3[nH]nc(N)c23)cc1` [Example 42, N-(4-(3-amino-7-(5-(trifluoromethyl)pyrimidin-2-yl)-1H-pyrazolo[4,3-c]pyridin-4-yl)benzyl)-5-fluoro-2-methoxybenzamide], the IC50 (NIH/3T3 BTK WT cells) was no more than 5 nM, the IC50 (NIH/3T3 BTK C481S cells) was 10 to 50 nM and the IC50 (Ramos cells with BTK WT) was 10 to 50 nM.
In the case of `COc1ccc(F)cc1C(=O)NCc1ccc(-c2ncc(-c3ccc(C4COC4)cn3)c3[nH]nc(N)c23)cc1` [Example 43, N-(4-(3-amino-7-(5-(oxetan-3-yl)pyridin-2-yl)-1H-pyrazolo[4,3-c]pyridin-4-yl)benzyl)-5-fluoro-2-methoxybenzamide], the IC50 (NIH/3T3 BTK WT cells) is reported as no more than 5 nM, the IC50 (NIH/3T3 BTK C481S cells) is reported as no more than 5 nM and the IC50 (Ramos cells with BTK WT) is reported as no more than 5 nM.
For `COc1ccc(F)cc1C(=O)NCc1ccc(-c2ncc(-c3cc4ncccn4n3)c3[nH]nc(N)c23)cc1` [Example 44, N-(4-(3-amino-7-(pyrazolo[1,5-a]pyrimidin-2-yl)-1H-pyrazolo[4,3-c]pyridin-4-yl)benzyl)-5-fluoro-2-methoxybenzamide], the IC50 (NIH/3T3 BTK WT cells) was no more than 5 nM, the IC50 (NIH/3T3 BTK C481S cells) was no more than 5 nM and the IC50 (Ramos cells with BTK WT) was no more than 5 nM.
Work on `CCOC(=O)c1cnc2cc(-c3cnc(-c4ccc(CNC(=O)c5cc(F)ccc5OC)cc4)c4c(N)n[nH]c34)nn2c1` [Example 45, ethyl 2-(3-amino-4-(4-((5-fluoro-2-methoxybenzoylamino)methyl)phenyl)-1H-pyrazolo[4,3-c]pyridin-7-yl)pyrazolo[1,5-a]pyrimidine-6-carboxylate] yielded an IC50 (NIH/3T3 BTK WT cells) of 10 to 50 nM, an IC50 (NIH/3T3 BTK C481S cells) of 10 to 50 nM and an IC50 (Ramos cells with BTK WT) greater than 50 nM.
With `COc1ccc(F)cc1C(=O)NCc1ccc(-c2ncc(-c3ccn4nccc4n3)c3[nH]nc(N)c23)cc1` [Example 46, N-(4-(3-amino-7-(pyrazolo[1,5-a]pyrimidin-5-yl)-1H-pyrazolo[4,3-c]pyridin-4-yl)benzyl)-5-fluoro-2-methoxybenzamide] the IC50 (NIH/3T3 BTK WT cells) was no more than 5 nM, the IC50 (NIH/3T3 BTK C481S cells) was 5 to 10 nM and the IC50 (Ramos cells with BTK WT) was no more than 5 nM.
`COc1ccc(F)cc1C(=O)NCc1ccc(-c2ncc(-c3ccc4cn[nH]c4n3)c3[nH]nc(N)c23)cc1` [Example 47, N-(4-(3-amino-7-(1H-pyrazolo[3,4-b]pyridin-6-yl)-1H-pyrazolo[4,3-c]pyridin-4-yl)benzyl)-5-fluoro-2-methoxybenzamide] showed an IC50 (NIH/3T3 BTK WT cells) of 5 to 10 nM, an IC50 (NIH/3T3 BTK C481S cells) of 10 to 50 nM and an IC50 (Ramos cells with BTK WT) of 5 to 10 nM.
Compound `COc1ccc(F)cc1C(=O)NCc1ccc(-c2ncc(-c3ccc(C(F)F)cn3)c3[nH]nc(N)c23)cc1` [Example 48, N-(4-(3-amino-7-(5-(difluoromethyl)pyridin-2-yl)-1H-pyrazolo[4,3-c]pyridin-4-yl)benzyl)-5-fluoro-2-methoxybenzamide] has an IC50 (NIH/3T3 BTK WT cells) of no more than 5 nM, an IC50 (NIH/3T3 BTK C481S cells) of no more than 5 nM and an IC50 (Ramos cells with BTK WT) of no more than 5 nM.
For `COc1ccc(F)cc1C(=O)NCc1ccc(-c2ncc(-c3cn4ccnc4cn3)c3[nH]nc(N)c23)cc1` [Example 50, N-(4-(3-amino-7-(imidazo[1,2-a]pyrazin-6-yl)-1H-pyrazolo[4,3-c]pyridin-4-yl)benzyl)-5-fluoro-2-methoxybenzamide], the IC50 (NIH/3T3 BTK WT cells) was no more than 5 nM, the IC50 (NIH/3T3 BTK C481S cells) was 5 to 10 nM and the IC50 (Ramos cells with BTK WT) was 5 to 10 nM.
